The text below walks through data of US20230174485A1, “LIPOXYGENASE INHIBITORS” (SRI International, priority 2020, published 2023).

Several values for one entry are separate records, joined by “and”; a condition that tells them apart may be missing. Equal entries are not always repeated. Where two headings read alike, the source gives them in different places.

Holding throughout (format): biochemical
The target of assay [1] is T1, recombinant 12-LOX enzyme (Homo sapiens, UniProt P18054).
T1 sequence (P18054 1-663): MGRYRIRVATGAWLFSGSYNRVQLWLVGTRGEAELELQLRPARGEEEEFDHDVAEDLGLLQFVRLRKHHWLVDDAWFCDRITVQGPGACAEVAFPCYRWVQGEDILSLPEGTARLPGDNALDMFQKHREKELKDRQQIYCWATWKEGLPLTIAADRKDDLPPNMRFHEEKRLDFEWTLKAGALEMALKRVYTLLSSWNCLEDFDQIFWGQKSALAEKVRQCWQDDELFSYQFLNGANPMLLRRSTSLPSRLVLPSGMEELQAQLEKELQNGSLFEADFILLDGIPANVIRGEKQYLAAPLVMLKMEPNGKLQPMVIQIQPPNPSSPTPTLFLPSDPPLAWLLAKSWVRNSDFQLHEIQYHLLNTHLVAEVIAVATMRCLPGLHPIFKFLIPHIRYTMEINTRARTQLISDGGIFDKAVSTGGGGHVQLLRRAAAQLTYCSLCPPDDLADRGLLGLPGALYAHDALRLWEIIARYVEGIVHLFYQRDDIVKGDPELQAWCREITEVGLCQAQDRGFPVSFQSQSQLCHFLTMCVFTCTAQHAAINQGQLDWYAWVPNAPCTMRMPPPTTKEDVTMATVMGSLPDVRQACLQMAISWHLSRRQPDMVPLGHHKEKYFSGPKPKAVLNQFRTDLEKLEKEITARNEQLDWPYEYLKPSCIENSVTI
The assay can be described thus: 12-LOX fluorescent assay. Particulars: several values in one cell = repeat determinations. The essentials: (§1)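 Compounds pre-incubated 15 min with 100 nM 12-LOX or 50 nM 15-LOX in 50 mM Tris pH 7.5, 0.05% Tween-20; reaction started with 20 μM AA/LA plus 1 μM DHR123.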

Assay [2] addresses T2, recombinant 5-LOX (Homo sapiens, UniProt P09917).
T2 sequence (P09917 1-674): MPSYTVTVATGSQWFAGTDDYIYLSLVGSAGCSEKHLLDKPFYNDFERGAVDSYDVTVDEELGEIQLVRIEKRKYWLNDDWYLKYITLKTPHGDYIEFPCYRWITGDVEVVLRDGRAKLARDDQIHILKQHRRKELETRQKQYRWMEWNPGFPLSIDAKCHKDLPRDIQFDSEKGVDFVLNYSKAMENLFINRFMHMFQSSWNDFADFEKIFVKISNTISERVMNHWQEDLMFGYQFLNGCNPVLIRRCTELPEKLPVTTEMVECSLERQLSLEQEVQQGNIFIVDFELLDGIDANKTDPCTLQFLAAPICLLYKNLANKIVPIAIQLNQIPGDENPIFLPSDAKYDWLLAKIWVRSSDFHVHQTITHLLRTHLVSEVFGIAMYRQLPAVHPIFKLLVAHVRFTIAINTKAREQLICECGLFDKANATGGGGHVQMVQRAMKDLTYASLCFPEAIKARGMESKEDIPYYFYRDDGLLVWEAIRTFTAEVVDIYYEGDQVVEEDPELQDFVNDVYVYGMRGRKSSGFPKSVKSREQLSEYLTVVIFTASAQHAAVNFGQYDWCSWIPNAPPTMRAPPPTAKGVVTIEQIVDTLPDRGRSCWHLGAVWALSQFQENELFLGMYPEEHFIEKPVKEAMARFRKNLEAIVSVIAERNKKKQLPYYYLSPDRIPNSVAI
Nature of the assay: 5-LOX fluorescent assay. The conditions noted are these: several values in one cell = repeat determinations; read-out: IC50 (μM) values for in vitro lipoxygenase inhibition, 5-LOX. The essentials:
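Lysate containing recombinant 5-LOX was pre-incubated 15 min with compounds in 50 mM Tris pH 7.5, 0.1 mM EDTA, 0.3 mM CaCl2. The reaction was started with 20 μM arachidonic acid, 100 μM ATP and 1 μM DHR123.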

The target in assay [3] is T3, recombinant 15-LOX enzyme (Homo sapiens, UniProt P16050).
T3 sequence (P16050 1-662): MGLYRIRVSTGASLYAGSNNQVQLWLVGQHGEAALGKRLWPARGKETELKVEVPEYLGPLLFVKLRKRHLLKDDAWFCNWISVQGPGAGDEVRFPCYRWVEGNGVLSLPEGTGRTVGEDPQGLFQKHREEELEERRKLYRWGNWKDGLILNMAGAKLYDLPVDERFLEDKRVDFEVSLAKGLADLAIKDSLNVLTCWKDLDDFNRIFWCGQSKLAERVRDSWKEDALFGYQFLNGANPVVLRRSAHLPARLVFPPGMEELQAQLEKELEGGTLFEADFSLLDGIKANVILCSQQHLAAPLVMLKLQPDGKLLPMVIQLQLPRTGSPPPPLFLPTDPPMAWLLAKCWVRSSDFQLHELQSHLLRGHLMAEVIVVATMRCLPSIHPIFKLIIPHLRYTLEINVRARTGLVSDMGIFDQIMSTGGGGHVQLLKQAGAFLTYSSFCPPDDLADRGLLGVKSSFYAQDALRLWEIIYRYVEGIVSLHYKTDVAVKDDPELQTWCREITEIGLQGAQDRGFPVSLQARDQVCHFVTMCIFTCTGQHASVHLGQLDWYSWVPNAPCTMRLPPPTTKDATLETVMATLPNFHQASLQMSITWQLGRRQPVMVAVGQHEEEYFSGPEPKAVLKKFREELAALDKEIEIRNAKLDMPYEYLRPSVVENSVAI
The assay can be described thus: 15-LOX fluorescent assay. Particulars: several values in one cell = repeat determinations. The essentials:
as §1

Setting [4] is: read-out: IC50 (μM) values for in vitro lipoxygenase inhibition, 12-LOX.
[5] abbreviates: read-out: IC50 (μM) values for in vitro lipoxygenase inhibition, 15-LOX.
The mark [6] stands for this setting: IC50 (μM) values for in vitro lipoxygenase inhibition, 15-LOX.

Turning to `c1ccc2c(c1)CCc1ccc(NCCn3cncn3)cc1N2` [SS20308-0224-01, N-(2-(1H-1,2,4-triazol-1-yl)ethyl)-10,11-dihydro-5H-dibenzo[b,f]azepin-3-amine], the IC50 in assay [1] (setting [4]) worked out at 0.11 µM; in assay [2] it was 0.22 µM; in assay [3] (setting [5]), 1.12 µM.
Take `CN(C)CCCc1c(O)ccc2c1[nH]c1ccc(F)cc12` [SS20308-0068-01, 1-(3-(dimethylamino)propyl)-6-fluoro-9H-carbazol-2-ol]: the results for the IC50 in assay [1] (setting [4]), in assay [2] and in assay [3] (setting [6]) were 0.77 µM, 5.63 µM and 1.76 µM, respectively.
The corresponding values for `Fc1ccc2[nH]c3c(OCCn4cncn4)cc(Oc4ccccc4)cc3c2c1` [SS20308-0084-01, 1-(2-(1H-1,2,4-triazol-1-yl)ethoxy)-6-fluoro-3-phenoxy-9H-carbazole] are 5.42 µM, 6.79 µM and 3.36 µM.
Consider `CN(C)CCC(c1ccccc1)c1ccc2[nH]c3ccccc3c2c1` (stereo not drawn) [SS20308-0183-01, 3-(9H-carbazol-3-yl)-N,N-dimethyl-3-phenylpropan-1-amino], for which the IC50 in assay [1] (setting [4]) is 50.9 µM; in assay [2], 5.01 µM; in assay [3] (setting [5]), 13.1 µM.
The corresponding values for `CN(C)CCCc1cc(-c2cccc3c2NCC3)cc2[nH]c3ccccc3c12` [SS20308-0170-01, 3-(2-(indolin-7-yl)-9H-carbazol-4-yl)-N,N-dimethylpropan-1-amine] are 2.17 µM, 4.38 µM and 1.53 µM.
`Fc1ccc2[nH]c3cc(-c4ccccc4)c(NCC4(Cn5cncn5)COC4)cc3c2c1` [SS20308-0186-01, N-((3-((1H-1,2,4-triazol-1-yl)methyl)oxetan-3-yl)methyl)-6-fluoro-2-phenyl-9H-carbazol-3-amine]: the IC50 was 0.03 µM and 0.01 µM in assay [1] (setting [4]); 0.04 µM and 0.01 µM in assay [2]; 0.05 µM and 0.02 µM in assay [3] (setting [5]).
In the case of `Fc1cccc2c1[nH]c1cc3c(cc12)CCN3CCn1cncn1` [SS20308-0243-01, 1-(2-(1H-1,2,4-triazol-1-yl)ethyl)-8-fluoro-1,2,3,9-tetrahydropyrrolo[2,3-b]car bazole], the IC50 in assay [1] (setting [4]) was 0.03 µM; in assay [2], 0.2 µM; in assay [3] (setting [5]), 1.13 µM.
Take `CN(C)CCOc1c2nc(-c3ccccc3)[nH]c2cc2[nH]c3ccccc3c12` [SS20308-0122-01, N,N-dimethyl-2-(2-phenyl-3,5-dihydroimidazo[4,5-b]carbazol-10-yloxy)ethanamine]: the IC50 was 0.87 µM in assay [1] (setting [4]), 1.02 µM in assay [2] and 1.38 µM in assay [3] (setting [6]).
`CN(C)CCOc1cc2c3ccccc3[nH]c2c2[nH]c3ccccc3c12` [SS20308-0103-01, 2-(11,12-dihydroindolo[2,3-a]carbazol-5-yloxy)-N,N-dimethylethanamine]: the IC50 in assay [1] (setting [4]) came to 2.23 µM; in assay [2], 0.02 µM; in assay [3] (setting [5]), 0.06 µM.
As to `CN(C)C/C=C\c1c2[nH]c3ccccc3c2cc2[nH]c3ccccc3c12` [SS20308-0126-01, (Z)-3-(5,11-dihydroindolo[3,2-b]carbazol-6-yl)-N,N-dimethylprop-2-en-1-amine], the IC50 was found to be 0.04 µM in assay [1] (IC50 (μM) values for in vitro lipoxygenase inhibition, 12-LOX); 0.04 µM in assay [2]; 0.04 µM in assay [3] (setting [6]).
Take `Fc1cc2[nH]c3ccccc3c2cc1NCC1(Cn2cncn2)COC1` [SS20308-0304-01, N-((3-((1H-1,2,4-triazol-1-yl)methyl)oxetan-3-yl)methyl)-2-fluoro-9H-carbazol-3-amine]: the concentration for half-maximal inhibition (IC50) in assay [1] (setting [4]) was 0.09 µM; in assay [2], 0.2 µM; in assay [3] (setting [5]), 0.4 µM.
For `COc1cccc2c1[nH]c1ccc(F)cc12` [SS20308-0002-01, 6-fluoro-1-methoxy-9H-carbazole] the same measures were 8.04 µM, 20.8 µM and 4.33 µM.
Turning to `CN(C)CCOc1c2c(cc3[nH]c4ccccc4c13)[nH]c1ccccc12` [SS20308-0063-01, 2-(5,7-dihydroindolo[2,3-b]carbazol-12-yloxy)-N,N-dimethylethanamine], the 50% inhibitory concentration (IC50) in assay [1] (setting [4]) is 0.46 µM and 0.56 µM; in assay [2], 0.53 µM and 0.69 µM; in assay [3] (setting [6]), 0.29 µM and 0.9 µM.
With `CN(C)CC1(COc2c3[nH]c4ccc(F)cc4c3c(F)c3[nH]c4ccc(F)cc4c23)COC1` [SS20308-0185-01, N,N-dimethyl-1-(3-((2,8,12-trifluoro-5,11-dihydroindolo[3,2-b]carbazol-6-yloxy)methyl)oxetan-3-yl)methanamine], the half-inhibitory concentration (IC50) in assay [1] (setting [4]) worked out at 0.1 µM; in assay [2], 0.08 µM; in assay [3] (setting [5]), 0.05 µM.
The corresponding values for `CN(C)CCOc1c(NCc2ccccc2)ccc2c1[nH]c1ccc(F)cc12` [SS20308-0036-01, N-benzyl-1-(2-(dimethylamino)ethoxy)-6-fluoro-9H-carbazol-2-amine] are 0.4 µM, 0.35 µM and 0.8 µM.
In the case of `Fc1ccc2[nH]c3cc(C(F)(F)F)c(NCC4(Cn5cncn5)COC4)cc3c2c1` [SS20308-0295-01, N-((3-((1H-1,2,4-triazol-1-yl)methyl)oxetan-3-yl)methyl)-6-fluoro-2-(trifluoromethyl)-9H-carbazol-3-amine], the concentration for half-maximal inhibition (IC50) in assay [1] (setting [4]) was determined as 0.22 µM; in assay [2], 0.66 µM; in assay [3] (setting [5]), 0.49 µM.
In the case of `COc1ccc2c([nH]c3ccc(F)cc32)c1CCCN(C)C` [SS20308-0118-01, 3-(6-fluoro-2-methoxy-9H-carbazol-1-yl)-N,N-dimethylpropan-1-amine], the figures for the IC50 in assay [1] (setting [4]), in assay [2] and in assay [3] (setting [6]) were 24.2 µM, 23.2 µM and 26.9 µM, respectively.
As for `Cc1cc(OCCn2cncn2)c2[nH]c3ccccc3c2c1` [SS20308-0017-01, 1-(2-(1H-1,2,4-triazol-1-yl)ethoxy)-3-methyl-9H-carbazole], the 50% inhibitory concentration (IC50) in assay [1] (setting [4]) came to 2.85 µM; in assay [2] it was 6.06 µM; in assay [3] (setting [5]), 3.49 µM.
Take `Fc1c(NCC2(Cn3cncn3)COC2)ccc2[nH]c3ccccc3c12` [SS20308-0312-01, N-((3-((1H-1,2,4-triazol-1-yl)methyl)oxetan-3-yl)methyl)-4-fluoro-9H-carbazol-3-amine]: the IC50 in assay [1] (setting [4]) turned out to be 0.03 µM; in assay [2], 0.09 µM; in assay [3] (setting [5]) it was 0.15 µM.
Regarding `CN(C)CCOc1cc2c(cc1CNc1ccccc1)[nH]c1ccccc12` [SS20308-0119-01, N-((3-(2-(dimethylamino)ethoxy)-9H-carbazol-2-yl)methyl)aniline], the half-inhibitory concentration (IC50) in assay [1] (setting [4]) stood at 0.83 µM; in assay [2] it was 1.04 µM; in assay [3] (setting [5]), 0.71 µM.

By IC50 is commonly meant the point on the concentration scale where inhibition reaches its midpoint.
